Data taken from US9464111B2, “Short peptides and a method of use as an antioxidant” (L'OREAL, priority 2014, dated 2016).
Where no end group is shown, it is not given here.

Columns and labels:
Type in all cases: biochemical
[1] = ORAC oxygen radical absorbance capacity (USTM 192), in tubo; parameters: ORAC: unit not given here; details: for ORAC: Tables III-IX, unit not given; for ORAC/peroxyl: Table II
Procedure: (§1) In the course of the study, polypeptides were prepared by conventional synthesis methods and screened in tubo for antioxidant activity for peroxyl radicals (ROO.), superoxide radicals (O2.^−) and hydroxyl radicals (.OH).
(§2) In the screening standard testing for oxygen radical absorbance capacity (ORAC), hydroxyl radical absorbance capacity (HORAC), superoxide radical absorbance capacity (SORAC) and superoxide dismutase activity (SOD) were conducted with the test polypeptides. Testing was conducted according to USTM 190 (HORAC), USTM 191 (SORAC), USTM 192 (ORAC) and USTM 193 (SOAC) (SOD).
(§3) The peptides were tested in tubo for their antioxidant properties and tested against reference/known antioxidants. The evaluation of the antioxidant properties were conducted by determination of the ORAC (USTM 192), HORAC (USTM 190) and SOD (USTM 193) test methods.

[2] = SORAC superoxide radical absorbance capacity (USTM 191), in tubo; details: Tables III-VIII; for SORAC: result in words; for SORAC (IC25): cells marked (IC25)
Procedure: Tables I to IX shown below are a compilation of polypeptides studied by the inventors to ascertain those elements of the molecular structure that contribute to or negate antioxidant activity. In the course of the study, polypeptides were prepared by conventional synthesis methods and screened in tubo for antioxidant activity for peroxyl radicals (ROO.), superoxide radicals (O2.^−) and hydroxyl radicals (.OH).
In the screening standard testing for oxygen radical absorbance capacity (ORAC), hydroxyl radical absorbance capacity (HORAC), superoxide radical absorbance capacity (SORAC) and superoxide dismutase activity (SOD) were conducted with the test polypeptides. Testing was conducted according to USTM 190 (HORAC), USTM 191 (SORAC), USTM 192 (ORAC) and USTM 193 (SOAC) (SOD). Upon review of the results as indicated in the Tables, the inventors have discovered certain elements of the polypeptide structure as recited in claim 1 that are key contributors to determination of antioxidant activity.

[3] = HORAC hydroxyl radical absorbance capacity (USTM 190), in tubo; parameters: HORAC: unit not given here; details: for HORAC: Tables III-IX, unit not given; for HORAC/hydroxyl: Table II
Procedure: as §1, §2, §3

[4] = SOD superoxide dismutase activity (USTM 193), in tubo; details: Table II; for SOD/superoxide, Active25: cells marked (Active25)
Procedure: as §2, §3

## wRwR-NH2 [RED31]
[1]
  ORAC: 4652
[2]
  SORAC: No capacity

## kfRw-NH2 [RED7]
[1]
  ORAC: 2120
[3]
  HORAC: 1124
[2]
  SORAC: No capacity

## WKYK-NH2 [RED25]
[1]
  ORAC: 4168
[3]
  HORAC: 2476
[2]
  SORAC: No capacity

## RYHW [AO2, short chain polypeptide of the invention]
[1]
  ORAC/peroxyl: 9328 μmol GAE/g
  ORAC: 9328
[3]
  HORAC/hydroxyl: 41882 μmol GAE/g
  HORAC: 41882
[4]
  SOD/superoxide, Active25: 4 (Active25) U/mg
[2]
  SORAC (IC25): 4(IC25)

## KRKYWW-NH2 [RED2]
[1]
  ORAC: 1837
[3]
  HORAC: 1063
[2]
  SORAC: No capacity

## Ac-wRyR-NH2 [RED27]
[1]
  ORAC: 5342
[2]
  SORAC: No capacity

## Ac-KKKEEMQRR-NH2 [AC-SNP7]
[1]
  ORAC: No capacity
[3]
  HORAC: No capacity

## WRYR-NH2 [RED6]
[1]
  ORAC: 4488
[3]
  HORAC: 1548
[2]
  SORAC: No capacity

## HWPY [S1]
[1]
  ORAC: 5955
[2]
  SORAC (IC25): 13(IC25)

## Ac-Valérate-EEMQRRKKK-NH2 ({Ac-Valérate}-EEMQRRKKK-NH2; not fully specified; printed as Ac-Valérate-EEMQRRKKK-NH2) [AC-SNP6]
[1]
  ORAC: No capacity
[3]
  HORAC: No capacity

## fkwR-NH2 [RED9]
[1]
  ORAC: 2202
[3]
  HORAC: 752
[2]
  SORAC: No capacity

## wRyRy-NH2 [RED28]
[1]
  ORAC: 5216
[2]
  SORAC (IC25): 3(IC25)

## Ac-EEMQRRKKK-NH2 [AC-SNP5]
[1]
  ORAC: No capacity
[3]
  HORAC: No capacity

## RwRyR-NH2 [RED26]
[1]
  ORAC: 4461
[2]
  SORAC: No capacity

## Ac-EEVKRK-NH2 [AC-SYN1]
[1]
  ORAC: No capacity
[3]
  HORAC: No capacity

## YWPW [S2]
[1]
  ORAC: 5917
[2]
  SORAC: No capacity

## Ac-RRMLQLVEE-NH2 [AC-SNP1]
[1]
  ORAC: No capacity
[3]
  HORAC: No capacity

## CWRYR-NH2 [RED11]
[1]
  ORAC: 2007
[3]
  HORAC: 625
[2]
  SORAC: No capacity

## HWRF [IMM1]
[1]
  ORAC: 2422
[2]
  SORAC (IC25): 5(IC25)

## RYHM [AO2.1]
[1]
  ORAC/peroxyl: 5390 μmol GAE/g
  ORAC: 5390
[3]
  HORAC/hydroxyl: 132591 μmol GAE/g
  HORAC: 131574

## wRyR-NH2 [RED22]
[1]
  ORAC: 5383
[3]
  HORAC: 1686
[2]
  SORAC: No capacity

## NCCC(=O)N[C@@H](Cc1c[nH]cn1)C(=O)O [Carnosine, β-alanyl-histidine, reference compound]
[1]
  ORAC/peroxyl: 354 μmol GAE/g
[3]
  HORAC/hydroxyl: 2099 μmol GAE/g
[4]
  SOD/superoxide, Active50: 0 U/mg

## RRHM [CP2]
[1]
  ORAC/peroxyl: 1204 μmol GAE/g
  ORAC: 1204
[3]
  HORAC/hydroxyl: 321448 μmol GAE/g
  HORAC: 321448
[2]
  SORAC (IC25): 6(IC25)

## WrYr-NH2 [RED18]
[1]
  ORAC: 4758
[3]
  HORAC: 2982
[2]
  SORAC: No capacity

## WRYr-NH2 [RED19]
[1]
  ORAC: 4350
[3]
  HORAC: 1457
[2]
  SORAC: No capacity

## HYHY [AO1, short chain polypeptide of the invention]
[1]
  ORAC/peroxyl: 4748 μmol GAE/g
  ORAC: 4748
[3]
  HORAC/hydroxyl: 33489 μmol GAE/g
  HORAC: 33489
[4]
  SOD/superoxide, Active25: 6 (Active25) U/mg
[2]
  SORAC (IC25): 6(IC25)

## RRH [CP2.6]
[3]
  HORAC: 41073

## Ac-EELMSDIKK-NH2 [AC-SYN2]
[1]
  ORAC: No capacity
[3]
  HORAC: No capacity

## YkYkYk [RED34]
[1]
  ORAC: 355
[3]
  HORAC: 1053

## wRyRw-NH2 [RED29]
[1]
  ORAC: 5512
[2]
  SORAC: No capacity

## wRYR-NH2 [RED24]
[1]
  ORAC: 4077
[3]
  HORAC: 2225
[2]
  SORAC: No capacity

## HRHM [CP2.5]
[1]
  ORAC: 952
[3]
  HORAC: 10192

## RyR-NH2 [RED32]
[1]
  ORAC: 3385
[2]
  SORAC: No capacity

## WRYR (not fully specified (C-terminus)) [RED23]
[1]
  ORAC: 4091
[3]
  HORAC: 2089
[2]
  SORAC: No capacity

## WRyR-NH2 [RED21]
[1]
  ORAC: 4816
[3]
  HORAC: 2472
[2]
  SORAC (IC25): 7(IC25)

## O=C1O[C@H]([C@@H](O)CO)C(O)=C1O [Vitamin C, reference compound]
[1]
  ORAC/peroxyl: 4456 μmol GAE/g
[3]
  HORAC/hydroxyl: 0 μmol GAE/g
[4]
  SOD/superoxide, Active50: 752 U/mg

## WrYR-NH2 [RED20]
[1]
  ORAC: 4448
[3]
  HORAC: 1666
[2]
  SORAC: No capacity

## YHFR [IMM2]
[3]
  HORAC: 3036
[2]
  SORAC (IC25): 5(IC25)

## Ac-DESLESTRRM-NH2 [AC-SNP4]
[1]
  ORAC: No capacity
[3]
  HORAC: No capacity

## Ac-EEMLERQRR-NH2 [AC-SNP3]
[1]
  ORAC: No capacity
[3]
  HORAC: No capacity
